“And” between values parts separate entries of the source, which are not always exact repeats. Equal entries are not always repeated. “Also recorded” adds a separate entry of the source.
How the values were obtained:
[1] = test system: human TF1 cells that express H4R; assay: TF1 cell proliferation assay (GM-CSF promoted); assay type: cell-based
Procedure: Tritoqualine was tested on a cell proliferation assay using human TF1 cells that express H4R.
TF1 cell proliferation is promoted using granulocyte/macrophage colony-stimulating factor (GM-CSF). In this cell proliferation model H4R agonists inhibit cell proliferation. Clobenpropit (CB), a known H4R agonist at a dose of 10^−5M (10 μM) was used as a known cell proliferation inhibition control. […] Each experiment used 100,000 TF1 cells/mL incubated for three days with GM-CSF (10 ng/mL). After addition of TRQ in the range of 10^−5M (10 μM) to 10^−7 M (0.1 μM), and incubation for 3 days, cell proliferation was assessed and compared to that of 10 μM CB.

[2] = Spirometry parameter FEV1 in COPD patients; assay type: in vivo, human; set-up: T0 (initial visit) FEV1: unit not given here
Procedure: At the initial visit to the physician (T0), the patients were examined and the spirometry parameter FEV1 was recorded. Tritoqualine 200 mg/day were added to the patient's existing drug therapy. […] During each visit the patient's overall health and the FEV1 parameter was assessed by spirometry. […]

[3] = Reintroduction of causal food allergen in food allergy patients; assay type: in vivo, human; settings: baseline patients treated with one drug alone
Text: Allergens tested came from either […], or ALLERBIO.
The direct test with the Nutella® was strongly positive for allergy. This patient was hospitalized in two occasions for the same dramatic allergic reaction to Nutella® spread. Furthermore, the patient presented allergies to pneumoallergens.
Continuation of the above treatment for over 8 months afforded reversal of allergic and digestive symptoms due to food allergy.
The patient under study had survived two cases of anaphylactic shock due to ingestion of shrimps. […] Later the patient was able to ingest five shrimps without any local signs and no global reaction.
Baseline patients had signs of food allergies and the food allergy symptoms were not adequately managed with an H1 antagonist and cromoglycate. A group of 15 patients presenting signs of food allergies is tested with allergens such as the following: peanut, milk, tomato, potato, flour of wheat, soybean, fish, and shrimp. Allergens tested came from either […], or ALLERBIO.
All patients had history of hospitalization and reactions such as Quincke's edema and asthma crisis. Most of the causal allergens were peanut (six patients), egg (four patients) and soybean (five patients) of them (with other several positive food allergens at different degrees of reaction). […]

[4] = test system: hematopoietic progenitor cells; assay: CFU of hematopoietic progenitor cells in the presence of Ara-C; assay type: cell-based; settings: listed as TRQ
Text: Ara-C is a chemotherapeutic agent that kills cancel cells (or actively dividing cells).

[5] = molecular target: T1, recombinant human HDC (Homo sapiens, UniProt P19113); assay: Human-HDC activity determination (14CO2 from L-[U-14C]histidine); assay type: biochemical; settings: 10 μM final
T1 construct: The DNA encoding for residues 1-512 of human HDC; GST (fusion partner of the pGEX-6P-1 vector) (N, cleaved yes); made in house; host or cells: Escherichia coli BL21(DE3)pLysS
T1 sequence (P19113 1-512): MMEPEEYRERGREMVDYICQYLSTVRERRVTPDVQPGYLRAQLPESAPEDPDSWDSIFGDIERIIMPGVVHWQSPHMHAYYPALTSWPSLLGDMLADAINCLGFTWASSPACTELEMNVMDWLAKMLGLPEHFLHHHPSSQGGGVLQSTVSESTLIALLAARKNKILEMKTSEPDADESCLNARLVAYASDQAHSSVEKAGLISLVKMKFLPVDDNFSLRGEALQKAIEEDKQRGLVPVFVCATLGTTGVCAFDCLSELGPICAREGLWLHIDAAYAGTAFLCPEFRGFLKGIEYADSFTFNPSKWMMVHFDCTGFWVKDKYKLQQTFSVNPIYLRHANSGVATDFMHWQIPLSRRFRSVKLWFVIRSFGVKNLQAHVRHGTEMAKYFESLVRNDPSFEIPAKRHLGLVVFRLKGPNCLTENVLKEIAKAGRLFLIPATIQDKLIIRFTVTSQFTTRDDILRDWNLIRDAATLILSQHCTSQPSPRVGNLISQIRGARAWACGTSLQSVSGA
Text: The DNA encoding for residues 1-512 of human HDC was subcloned in the pGEX-6P-1 vector (GE-Healthcare). The recombinant plasmid transformed into the Escherichia coli BL21(DE3)pLysS strain. Transformed cultures were induced to express the HDC 1/512, which was purified by affinity chromatography using Glutathione sepharose (GE-Healthcare). 1/512 HDC was released from the fusion protein bound to the affinity chromatography support by digestion with the Pre-Scission™ protease (GE-Healthcare). The final preparations were dissolved in 50 mM potassium phosphate, 0.1 mM PLP, pH 7.0. Purity of the HDC 1/512 construct was checked by Coomassie blue staining and Western blotting, and was higher than 95% in the final preparations.
HDC activity was assayed, as described in Engel at al. (1996) Biochem J. 320: 365-368, by measuring the production of ^14CO2 from L-[U-^14C]histidine (GE-Healthcare) in a mixture containing 0.2 mM dithiothreitol, 10 μM PLP, 10 mg/ml poly(ethylene glycol)-300, 100 mM potassium phosphate, pH 6.8, and purified protein in a total volume of 100 μL. When recombinant HDC was used, the concentration of L[U-^14C]histidine was 13.3 μM (with ⅓ isotopic dilution). The released ^14CO2 was measured as previously described for HDC activity determinations (Urdiales et al. (1992) FEBS Lett. 305, 260-264).
10 μM concentration of each isomer, A and B (A corresponds to the isolated pure isomer eluting at 5.9 minutes, B corresponds to the isolated pure isomer eluting at 7.1 minutes of the chromatogram shown in FIG. 4 (bottom)) and their corresponding racemic mixture (starting material prior to separating the individual isomers, indicated as A+B) along with 4 μg of recombinant human HDC were used to asses the inhibitory effect of each isomer and the mixture on the enzymatic conversion of histidine to histamine. Results are presented as means of duplicates samples.

For `CCOc1c(N)c2c(c(OCC)c1OCC)C(C1c3c(cc4c(c3OC)OCO4)CCN1C)OC2=O` (racemic) [Tritoqualine, 7-Amino-4,5,6-triethoxy-3-(5,6,7,8-tetrahydro-4-methoxy-6-methyl-1,3-dioxolo[4,5-g]isoquinolin-5-yl) phthalide], the “inhibition of cell proliferation” value ([1]; 0.1 μM) was “no inhibition of cell proliferation”, the inhibition at 10 µM ([1]; Homo sapiens, TF-1, 72 h, 10 μM, 3 days, three separate assays (n=3)) was 49% and the inhibition at 1 µM ([1]; Homo sapiens, TF-1, 1 μM) was 18%. The “T0 (initial visit) FEV1” value ([2]; Example 12, 13 COPD patients, one line per patient, baseline before Tritoqualine) was 1.00 (2×) and 2.39 and 1.86 (2×) and 1.60 and 1.53 and 1.64 and 1.32 and 0.82 and 0.58 and 2.28 and 1.30, the “improvement of FEV1 from visit T0 to T1 (paired t-test)” value ([2]; Example 12, 13 patients, P=0.0012) was “statistically significant improvement” and the “Mean, Visit T1” value ([2]; Example 12, N 13, 6-8 weeks of Tritoqualine 200 mg/day, FEV1 relative to expected normal value) was 77.69. The “Mean, Visit T0” value ([2]; Example 12, N 13, baseline, FEV1 relative to expected normal value) was 65.3, the “FEV1 as percent of expected normal value” ([2]; Example 12, per patient, 6-8 weeks of Tritoqualine 200 mg/day) was 50.76% and 97.74% and 85.50% and 71.77% and 92.96% and 72.24% and 87.41% and 64.90% and 68.42% and 43.53% and 88.24% and 88.89% and 105.12% and the “FEV1 as percent of expected normal value” ([2]; Example 12, per patient, baseline) was 50.76% and 89.85% and 47.33% and 76.56% and 71.83% and 62.36% and 74.07% and 53.88% and 53.95% and 34.12% and 83.82% and 72.22% and 86.51%. The “T2 (6-8 weeks follow-up visit) FEV1 normalized” value ([2]; Example 12, per patient, Tritoqualine 200 mg/day added to existing therapy) was 1.00 and 2.60 and 3.36 and 1.50 and 1.98 and 1.90 and 1.18 and 1.59 and 1.04 and 0.74 and 2.40 and 1.60 and 2.26, the “management of food allergy symptoms with the single drug” value [3] was “did not yield satisfactory management” and the “protection of cells / cell CFU in the presence of Ara-C” value [4] was “provides protection to the cells; also recorded: cell CFU remains high”. The inhibition at 10 µM [5] was 17.5%, the DPM ([5]; 4 μg recombinant human HDC, means of duplicates, control 12340) was 10176 DPM and the Activity ([5]; control 0.35) was 0.29 µmol/h. For the same compound, the Specific activity ([5]; control 87.00) was 71.74 μmole/h · mg prot and the remaining activity at 10 µM ([5]; read-out: % of control) was 82.5%.

Source: US8207188B2, “Treatment of diseases modulated by a H4 receptor agonist” (priority 2006, dated 2012)
